# Patent publication US9249129B2, “Morpholino substituted urea derivatives as mTOR inhibitors” (CELLZOME LIMITED, priority 2010, dated 2016)
# Assays:
# Test in all cases: kinobeads assay with mass spectrometry detection of kinases (kinase selectivity profile)
# Assay type in all cases: binding
# kinases (kinome) [1] = target: T1, kinases (kinome) (Homo sapiens, UniProt Q13535); details: ATR (Atypical), IPI00412298; 0.1 μM ranges
# T1 construct: determined in kinobeads assays with mass spectrometry detection of kinases as described previously; endogenous in cells; host or cells: cell lysate
# Description: (§1) The protein kinase complement of the human genome (the kinome) was described previously (Manning et al., 2002. Science 298(5600):1912-1934). Sequence accession numbers are defined by the International Protein Index (IPI) (Kersey et al., 2004. Proteomics 4(7):1985-1988).
# kinases (kinome) [2] = target: T2, kinases (kinome) (Homo sapiens, UniProt P06493); details: CDC2 (CMGC), IPI00026689
# T2 construct: determined in kinobeads assays with mass spectrometry detection of kinases as described previously; endogenous in cells; host or cells: cell lysate
# Description: as §1
# kinases (kinome) [3] = target: T3, kinases (kinome) (Homo sapiens, UniProt P36507); details: MAP2K2 (STE), IPI00003783
# T3 construct: determined in kinobeads assays with mass spectrometry detection of kinases as described previously; endogenous in cells; host or cells: cell lysate
# Description: as §1
# kinases (kinome) [4] = target: T4, kinases (kinome) (Homo sapiens, UniProt P52333); details: JAK3 (TK), IPI00219418
# T4 construct: determined in kinobeads assays with mass spectrometry detection of kinases as described previously; endogenous in cells; host or cells: cell lysate
# T4 sequence (P52333 1-1124): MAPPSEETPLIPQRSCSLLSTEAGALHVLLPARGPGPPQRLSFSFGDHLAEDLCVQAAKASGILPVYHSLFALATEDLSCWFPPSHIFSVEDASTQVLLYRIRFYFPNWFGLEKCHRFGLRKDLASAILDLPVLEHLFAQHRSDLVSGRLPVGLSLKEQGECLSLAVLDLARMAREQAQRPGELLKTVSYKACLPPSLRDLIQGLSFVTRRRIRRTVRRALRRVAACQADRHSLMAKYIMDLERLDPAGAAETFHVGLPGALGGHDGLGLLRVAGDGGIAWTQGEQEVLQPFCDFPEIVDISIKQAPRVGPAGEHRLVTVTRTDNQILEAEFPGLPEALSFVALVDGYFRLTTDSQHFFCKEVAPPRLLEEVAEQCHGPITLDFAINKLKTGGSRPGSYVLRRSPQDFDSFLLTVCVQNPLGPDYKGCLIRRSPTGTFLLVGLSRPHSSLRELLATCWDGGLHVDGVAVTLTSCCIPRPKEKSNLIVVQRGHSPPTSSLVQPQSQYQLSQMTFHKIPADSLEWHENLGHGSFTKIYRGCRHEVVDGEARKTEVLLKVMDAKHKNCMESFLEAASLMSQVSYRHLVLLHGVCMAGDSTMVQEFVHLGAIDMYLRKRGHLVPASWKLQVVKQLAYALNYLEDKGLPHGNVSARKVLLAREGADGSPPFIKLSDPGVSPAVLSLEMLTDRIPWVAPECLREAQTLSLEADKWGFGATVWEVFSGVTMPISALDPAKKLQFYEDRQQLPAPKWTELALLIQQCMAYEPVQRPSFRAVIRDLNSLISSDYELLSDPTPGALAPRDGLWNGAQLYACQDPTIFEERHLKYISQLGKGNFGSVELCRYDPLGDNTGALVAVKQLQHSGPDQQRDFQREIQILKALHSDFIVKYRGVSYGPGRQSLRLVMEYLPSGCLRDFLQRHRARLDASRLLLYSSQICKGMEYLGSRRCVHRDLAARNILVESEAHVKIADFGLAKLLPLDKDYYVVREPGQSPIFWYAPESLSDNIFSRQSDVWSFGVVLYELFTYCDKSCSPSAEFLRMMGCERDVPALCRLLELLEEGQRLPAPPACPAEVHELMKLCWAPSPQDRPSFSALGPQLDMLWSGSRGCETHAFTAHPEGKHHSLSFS
# Description: as §1
# kinases (kinome) [5] = target: T5, kinases (kinome) (Homo sapiens, UniProt Q8N5S9); details: CaMKK1 (Other), IPI00792960
# T5 construct: determined in kinobeads assays with mass spectrometry detection of kinases as described previously; endogenous in cells; host or cells: cell lysate
# Description: as §1
# kinases (kinome) [6] = target: T6, kinases (kinome) (Homo sapiens, UniProt P43403); details: ZAP70 (TK), IPI00329789
# T6 construct: determined in kinobeads assays with mass spectrometry detection of kinases as described previously; endogenous in cells; host or cells: cell lysate
# T6 sequence (P43403 1-619): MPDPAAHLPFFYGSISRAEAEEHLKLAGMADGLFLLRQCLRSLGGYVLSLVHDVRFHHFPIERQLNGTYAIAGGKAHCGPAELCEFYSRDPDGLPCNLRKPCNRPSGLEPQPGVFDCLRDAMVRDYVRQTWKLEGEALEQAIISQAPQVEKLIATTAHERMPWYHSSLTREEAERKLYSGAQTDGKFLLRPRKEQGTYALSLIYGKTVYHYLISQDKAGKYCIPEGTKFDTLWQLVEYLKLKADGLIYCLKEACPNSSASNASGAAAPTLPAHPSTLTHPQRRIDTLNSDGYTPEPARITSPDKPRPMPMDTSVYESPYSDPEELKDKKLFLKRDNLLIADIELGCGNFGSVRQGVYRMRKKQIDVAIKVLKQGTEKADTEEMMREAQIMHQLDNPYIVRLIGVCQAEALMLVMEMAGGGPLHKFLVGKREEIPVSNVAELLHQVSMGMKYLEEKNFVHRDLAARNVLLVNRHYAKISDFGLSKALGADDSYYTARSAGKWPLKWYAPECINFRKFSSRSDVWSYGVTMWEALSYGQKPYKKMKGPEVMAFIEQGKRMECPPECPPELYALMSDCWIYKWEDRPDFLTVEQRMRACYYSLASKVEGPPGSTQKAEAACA
# Description: as §1
# kinases (kinome) [7] = target: T7, kinases (kinome) (Homo sapiens, UniProt O75716); details: MPSK1 (Other), IPI00915837
# T7 construct: determined in kinobeads assays with mass spectrometry detection of kinases as described previously; endogenous in cells; host or cells: cell lysate
# Description: as §1
# kinases (kinome) [8] = target: T8, kinases (kinome) (Homo sapiens, UniProt P00519); details: ABL (TK), IPI00221171
# T8 construct: determined in kinobeads assays with mass spectrometry detection of kinases as described previously; endogenous in cells; host or cells: cell lysate
# Description: as §1
# kinases (kinome) [9] = target: T9, kinases (kinome) (Homo sapiens, UniProt Q16566); details: CaMK4 (CAMK), IPI00430411
# T9 construct: determined in kinobeads assays with mass spectrometry detection of kinases as described previously; endogenous in cells; host or cells: cell lysate
# T9 sequence (Q16566 1-473): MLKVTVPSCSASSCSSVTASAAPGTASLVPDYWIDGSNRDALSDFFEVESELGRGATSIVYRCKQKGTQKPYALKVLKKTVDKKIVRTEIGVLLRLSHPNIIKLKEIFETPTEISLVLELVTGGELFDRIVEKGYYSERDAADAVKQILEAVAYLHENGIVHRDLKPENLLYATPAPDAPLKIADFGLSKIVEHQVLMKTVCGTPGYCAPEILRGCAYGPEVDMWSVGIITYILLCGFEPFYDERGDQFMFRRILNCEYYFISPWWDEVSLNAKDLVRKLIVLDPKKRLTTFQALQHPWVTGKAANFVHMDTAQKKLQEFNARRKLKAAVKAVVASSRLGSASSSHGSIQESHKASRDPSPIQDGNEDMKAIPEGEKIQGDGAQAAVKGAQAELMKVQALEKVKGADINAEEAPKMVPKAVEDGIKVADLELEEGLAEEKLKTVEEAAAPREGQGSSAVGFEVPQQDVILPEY
# Description: as §1
# T8 sequence (P00519 whole entry): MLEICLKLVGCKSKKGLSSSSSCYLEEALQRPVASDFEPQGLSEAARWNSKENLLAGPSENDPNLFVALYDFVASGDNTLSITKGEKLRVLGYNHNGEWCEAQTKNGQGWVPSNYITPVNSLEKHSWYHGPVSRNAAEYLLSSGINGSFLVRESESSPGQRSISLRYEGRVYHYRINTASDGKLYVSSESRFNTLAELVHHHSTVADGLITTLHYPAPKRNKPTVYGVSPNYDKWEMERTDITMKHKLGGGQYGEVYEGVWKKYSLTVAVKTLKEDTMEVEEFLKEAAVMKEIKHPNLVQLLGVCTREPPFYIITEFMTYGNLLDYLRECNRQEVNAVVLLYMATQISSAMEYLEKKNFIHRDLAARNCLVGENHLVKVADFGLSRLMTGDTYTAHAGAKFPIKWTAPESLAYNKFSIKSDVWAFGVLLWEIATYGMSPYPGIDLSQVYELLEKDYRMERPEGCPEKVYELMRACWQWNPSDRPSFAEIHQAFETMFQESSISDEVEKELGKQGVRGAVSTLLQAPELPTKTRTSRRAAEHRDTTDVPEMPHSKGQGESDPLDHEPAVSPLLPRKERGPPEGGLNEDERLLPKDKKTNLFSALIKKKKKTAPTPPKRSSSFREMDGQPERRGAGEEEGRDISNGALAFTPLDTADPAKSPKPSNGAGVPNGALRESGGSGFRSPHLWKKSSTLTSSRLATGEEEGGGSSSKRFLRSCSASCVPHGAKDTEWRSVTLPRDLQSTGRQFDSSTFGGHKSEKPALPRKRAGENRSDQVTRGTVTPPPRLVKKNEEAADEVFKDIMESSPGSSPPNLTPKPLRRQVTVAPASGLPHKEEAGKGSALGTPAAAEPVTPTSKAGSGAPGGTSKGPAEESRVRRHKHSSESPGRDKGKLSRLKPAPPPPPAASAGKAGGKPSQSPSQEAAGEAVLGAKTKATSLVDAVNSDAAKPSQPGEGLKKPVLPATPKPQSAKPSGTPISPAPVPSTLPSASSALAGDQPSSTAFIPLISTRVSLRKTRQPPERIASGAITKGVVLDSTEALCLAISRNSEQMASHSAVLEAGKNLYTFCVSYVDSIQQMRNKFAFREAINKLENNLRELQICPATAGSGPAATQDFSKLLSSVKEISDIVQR
# T1 sequence (Q13535 whole entry): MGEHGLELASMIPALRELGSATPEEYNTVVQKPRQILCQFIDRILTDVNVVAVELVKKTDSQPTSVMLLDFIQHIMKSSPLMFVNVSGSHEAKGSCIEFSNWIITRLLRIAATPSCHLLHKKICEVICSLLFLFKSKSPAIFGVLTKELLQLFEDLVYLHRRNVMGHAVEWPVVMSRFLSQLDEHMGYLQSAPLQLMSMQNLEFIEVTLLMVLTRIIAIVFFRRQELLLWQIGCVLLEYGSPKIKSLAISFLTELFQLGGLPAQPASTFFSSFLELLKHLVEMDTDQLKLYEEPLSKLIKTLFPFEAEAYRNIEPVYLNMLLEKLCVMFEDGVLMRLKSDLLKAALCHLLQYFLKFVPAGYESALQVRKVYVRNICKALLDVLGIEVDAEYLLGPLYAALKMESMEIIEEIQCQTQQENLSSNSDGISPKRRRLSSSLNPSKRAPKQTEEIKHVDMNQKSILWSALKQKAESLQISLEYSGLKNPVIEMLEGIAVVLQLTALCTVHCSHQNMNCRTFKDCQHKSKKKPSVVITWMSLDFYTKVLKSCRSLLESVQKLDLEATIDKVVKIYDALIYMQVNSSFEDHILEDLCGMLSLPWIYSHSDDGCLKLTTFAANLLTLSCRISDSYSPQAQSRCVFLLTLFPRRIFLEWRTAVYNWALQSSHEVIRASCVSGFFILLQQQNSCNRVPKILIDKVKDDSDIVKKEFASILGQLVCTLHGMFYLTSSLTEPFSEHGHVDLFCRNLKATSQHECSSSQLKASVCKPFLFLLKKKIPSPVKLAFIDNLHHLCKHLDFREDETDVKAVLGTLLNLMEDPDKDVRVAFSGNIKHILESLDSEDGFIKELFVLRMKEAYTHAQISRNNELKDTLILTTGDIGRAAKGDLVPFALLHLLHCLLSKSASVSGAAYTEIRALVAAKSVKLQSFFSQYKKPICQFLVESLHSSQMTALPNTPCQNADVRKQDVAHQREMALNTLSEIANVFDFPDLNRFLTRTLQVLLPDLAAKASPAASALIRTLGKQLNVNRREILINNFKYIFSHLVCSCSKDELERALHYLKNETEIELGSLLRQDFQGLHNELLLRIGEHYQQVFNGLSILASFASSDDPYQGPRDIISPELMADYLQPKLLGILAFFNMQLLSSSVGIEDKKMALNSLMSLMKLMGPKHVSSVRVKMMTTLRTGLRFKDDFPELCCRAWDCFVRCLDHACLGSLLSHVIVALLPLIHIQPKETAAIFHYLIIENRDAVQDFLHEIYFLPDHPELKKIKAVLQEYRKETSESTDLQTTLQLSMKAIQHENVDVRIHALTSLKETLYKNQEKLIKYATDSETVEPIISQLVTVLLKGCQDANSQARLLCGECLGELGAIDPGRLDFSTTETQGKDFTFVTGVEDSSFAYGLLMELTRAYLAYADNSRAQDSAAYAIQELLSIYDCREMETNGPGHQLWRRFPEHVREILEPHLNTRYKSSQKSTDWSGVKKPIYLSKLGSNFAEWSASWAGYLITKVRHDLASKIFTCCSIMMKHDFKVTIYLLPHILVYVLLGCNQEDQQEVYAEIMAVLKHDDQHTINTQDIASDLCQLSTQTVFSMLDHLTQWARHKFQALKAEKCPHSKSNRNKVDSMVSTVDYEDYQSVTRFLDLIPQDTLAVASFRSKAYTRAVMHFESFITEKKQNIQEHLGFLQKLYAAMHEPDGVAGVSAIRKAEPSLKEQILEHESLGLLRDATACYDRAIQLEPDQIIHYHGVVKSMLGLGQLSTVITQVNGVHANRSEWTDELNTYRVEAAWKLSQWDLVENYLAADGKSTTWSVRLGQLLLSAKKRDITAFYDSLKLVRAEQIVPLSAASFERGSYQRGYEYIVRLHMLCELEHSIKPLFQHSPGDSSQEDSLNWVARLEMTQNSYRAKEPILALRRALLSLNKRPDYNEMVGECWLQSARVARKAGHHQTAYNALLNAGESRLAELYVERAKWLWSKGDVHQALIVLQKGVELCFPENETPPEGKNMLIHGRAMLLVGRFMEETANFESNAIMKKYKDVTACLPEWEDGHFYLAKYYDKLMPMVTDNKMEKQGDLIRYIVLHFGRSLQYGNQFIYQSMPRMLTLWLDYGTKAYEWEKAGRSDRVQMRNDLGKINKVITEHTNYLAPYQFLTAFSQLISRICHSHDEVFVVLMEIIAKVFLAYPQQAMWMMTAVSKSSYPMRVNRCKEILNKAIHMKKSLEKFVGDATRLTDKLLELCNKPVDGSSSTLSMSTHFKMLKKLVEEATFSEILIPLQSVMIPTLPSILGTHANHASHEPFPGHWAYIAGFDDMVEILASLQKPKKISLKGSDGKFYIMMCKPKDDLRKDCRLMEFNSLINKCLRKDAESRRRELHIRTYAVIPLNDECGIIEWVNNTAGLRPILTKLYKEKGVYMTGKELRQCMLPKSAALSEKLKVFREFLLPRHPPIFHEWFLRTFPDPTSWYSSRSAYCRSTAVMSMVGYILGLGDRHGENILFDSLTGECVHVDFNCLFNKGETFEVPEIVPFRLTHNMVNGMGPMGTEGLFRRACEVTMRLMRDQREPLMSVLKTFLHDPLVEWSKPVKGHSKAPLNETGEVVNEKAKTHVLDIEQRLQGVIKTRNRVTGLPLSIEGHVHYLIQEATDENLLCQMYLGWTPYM
# T2 sequence (P06493 whole entry): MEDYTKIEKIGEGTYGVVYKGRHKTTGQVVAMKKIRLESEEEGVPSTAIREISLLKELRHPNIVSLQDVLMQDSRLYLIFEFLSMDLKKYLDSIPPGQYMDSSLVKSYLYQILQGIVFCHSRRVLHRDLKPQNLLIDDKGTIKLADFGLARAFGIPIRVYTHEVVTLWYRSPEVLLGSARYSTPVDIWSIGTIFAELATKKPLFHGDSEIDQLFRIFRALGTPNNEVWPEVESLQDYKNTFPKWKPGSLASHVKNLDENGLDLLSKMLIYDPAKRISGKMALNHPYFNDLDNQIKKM
# T5 sequence (Q8N5S9 whole entry): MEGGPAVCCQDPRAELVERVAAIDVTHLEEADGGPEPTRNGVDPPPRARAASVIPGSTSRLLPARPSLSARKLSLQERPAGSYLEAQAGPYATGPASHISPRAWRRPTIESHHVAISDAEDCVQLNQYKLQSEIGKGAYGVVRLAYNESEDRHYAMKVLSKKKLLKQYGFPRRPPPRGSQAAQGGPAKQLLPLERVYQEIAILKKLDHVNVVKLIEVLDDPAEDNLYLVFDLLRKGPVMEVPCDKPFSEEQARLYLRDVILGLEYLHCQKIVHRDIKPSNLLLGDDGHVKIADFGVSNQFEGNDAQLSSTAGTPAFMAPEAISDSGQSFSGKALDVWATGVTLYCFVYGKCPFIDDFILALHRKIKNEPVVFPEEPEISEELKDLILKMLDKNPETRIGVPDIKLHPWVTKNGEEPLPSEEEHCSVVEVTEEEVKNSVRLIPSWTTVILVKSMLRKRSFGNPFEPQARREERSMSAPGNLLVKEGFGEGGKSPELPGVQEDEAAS
# T3 sequence (P36507 whole entry): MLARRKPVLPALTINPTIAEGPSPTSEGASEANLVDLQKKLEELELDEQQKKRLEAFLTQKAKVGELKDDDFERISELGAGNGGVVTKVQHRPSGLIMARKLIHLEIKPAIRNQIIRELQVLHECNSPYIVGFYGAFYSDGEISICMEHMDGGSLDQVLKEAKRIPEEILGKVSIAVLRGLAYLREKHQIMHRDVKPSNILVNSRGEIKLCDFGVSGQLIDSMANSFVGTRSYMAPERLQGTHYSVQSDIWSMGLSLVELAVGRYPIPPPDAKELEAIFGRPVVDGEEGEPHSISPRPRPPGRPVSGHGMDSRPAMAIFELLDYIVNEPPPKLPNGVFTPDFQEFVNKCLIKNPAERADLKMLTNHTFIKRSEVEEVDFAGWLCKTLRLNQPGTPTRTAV
IC50 (kinases (kinome) [1]) [µM],IC50 (kinases (kinome) [2]) [µM],IC50 (kinases (kinome) [3]) [µM],IC50 (kinases (kinome) [4]) [µM],IC50 (kinases (kinome) [5]) [µM],IC50 (kinases (kinome) [6]) [µM],IC50 (kinases (kinome) [7]) [µM],IC50 (kinases (kinome) [8]) [µM],IC50 (kinases (kinome) [9]) [µM],Compound
> 10,> 10,> 10,> 10,> 10,> 10,–,–,–,"C[C@H]1COCCN1c1nc(-c2ccc(NC(=O)NC3CC3)cc2)cc(-c2cccnc2S(C)(=O)=O)n1 [Example 46, (S)-1-cyclopropyl-3-(4-(2-(3-methylmorpholino)-6-(2-(methylsulfonyl)pyridin-3-yl)pyrimidin-4-yl)phenyl)urea]"
> 10,> 10,> 10,–,> 10,> 10,> 10,> 10,> 10,"C[C@H]1COCCN1c1nc(-c2ccc(NC(=O)NC3CC3)cc2)cc(-c2ccccc2S(C)(=O)=O)n1 [Example 4, (S)-1-cyclopropyl-3-(4-(2-(3-methylmorpholino)-6-(2-(methylsulfonyl)phenyl)pyrimidin-4-yl)phenyl)urea]"
1.1 to 1.2,> 10,> 10,> 10,> 10,> 10,–,> 10,> 10,"C[C@H]1COCCN1c1nc(-c2ccc(NC(=O)NC3CC3)cc2)cc(-c2cc(F)ccc2S(C)(=O)=O)n1 [Example 40, (S)-1-cyclopropyl-3-(4-(6-(5-fluoro-2-(methylsulfonyl)phenyl)-2-(3-methylmorpholino)pyrimidin-4-yl)phenyl)urea]"
> 10,> 10,> 10,> 10,> 10,–,> 10,> 10,–,"C[C@H]1COCCN1c1nc(-c2ccc(NC(=O)N[C@H]3CCC[C@@H]3O)cc2)cc(-c2cc(F)ccc2S(C)(=O)=O)n1 [Example 76, 1-(4-(6-(5-fluoro-2-(methylsulfonyl)phenyl)-2-((S)-3-methylmorpholino)pyrimidin-4-yl)phenyl)-3-((1S,2S)-2-hydroxycyclopentyl)urea]"
> 10,–,> 10,> 10,> 10,> 10,–,–,> 10,"C[C@H]1COCCN1c1cc(-c2ccccn2)nc(-c2ccc(NC(=O)NCCO)cc2)n1 [Example 43, (S)-1-(2-hydroxyethyl)-3-(4-(4-(3-methylmorpholino)-6-(pyridin-2-yl)pyrimidin-2-yl)phenyl)urea]"
–,–,–,> 10,–,–,> 10,–,> 10,"C[C@H]1COCCN1c1cc(-c2ccccc2S(C)(=O)=O)nc(-c2ccc(NC(=O)NC3CC3)cc2)n1 [Example 6, (S)-1-cyclopropyl-3-(4-(4-(3-methylmorpholino)-6-(2-(methylsulfonyl)phenyl)pyrimidin-2-yl)phenyl)urea]"
–,–,–,–,–,–,–,–,> 10,"CCNC(=O)Nc1ccc(-c2cc(-c3ccccc3C#N)nc(N3CCOC[C@@H]3C)n2)cc1 [Example 8, (S)-1-(4-(6-(2-cyanophenyl)-2-(3-methylmorpholino)pyrimidin-4-yl)phenyl)-3-ethylurea]"
